Assay results taken from patent US4994617A, “Aminoalcohols, their preparation process and their applications, particularly in therapeutics” (Jouveinal S.A., priority 1986, dated 1991).

How the values were obtained:
mice [1] = assay: tail hanging test, activity on the S.N.C. (central nervous system), mice, oral; format: in vivo, mouse; settings: 1 hour before the test; for change in vivo at 32 mg/kg / change in vivo at 128 mg/kg: Mus musculus, po, 1 h, read-out: S.N.C.: Hanging test, activity percentages compared with the controls
Procedure: This activity was investigated on mice using the tail hanging test in accordance with the procedure described by Thierry et al. (Behavioral and Neural Biology, 1984, 41, 180-189), which was proposed as a model for the animal for the selection of products active on the S.N.C.
The tests were carried out on batches of 10 male mice for each product and at each dose, the substances to be investigated being administered orally in aqueous solution 1 hour before the test, a control batch only receiving distilled water.
The results of the tests are given in activity percentages compared with the controls.

mice [2] = assay: acetic acid test, analgesic activity, mice, oral; format: in vivo, mouse; settings: for Analgesia: Acetic acid test, percentages of analgesed animals: Dose: 30 mg/kg, 30 minutes before acetic acid injection; for ED50: Mus musculus, read-out: Analgesia: Acetic acid test, ED50 (dose causing analgesia of 50% of the animals)
Procedure: This was investigated and determined on mice using the acetic acid test according to a procedure derived from that of Troster R. (Fed. Proc. 1959, 18, 412).
20 hours prior to the test, the animals were starved of food and drink. This was followed by the oral administration in aqueous solution of the product to be investigated at a rate of 2 ml of solution per 100 g of body weight, which was followed 30 minutes later by an intraperitoneal injection of 0.25 ml of 0.25% acetic acid solution (wt/v) maintained at 37° C. 30 minutes after this injection, the number of abdominal cramps suffered by the animals were counted for a period of 10 minutes.
The animals were considered to be analgesed when the number of cramps suffered was less than half the mean value of the cramps experienced by the controls.
The products were administered at a dose rate of 30 mg-kg^-1 and the results are given in percentages of analgesed animals. For certain products, several doses were administered and the calculation of their ED50 (dose causing analgesia of 50% of the animals) was determined in log probability units.

SMILES | change in vivo at 32 mg/kg (mice [1]; Dose: 32 mg/kg) [%] | Analgesia: Acetic acid test, percentages of analgesed animals (mice [2]) [%] | change in vivo at 128 mg/kg (mice [1]; Dose: 128 mg/kg) [%] | also measured
CCN(C)C(C)(CO)Cc1ccc(Cl)c(Cl)c1 (racemic) [JO 1291, (±) 2-methyl-2-(N-methyl, N-ethyl)-amino-3-(3,4-dichlorophenyl)-propanol] | -58 | -38 |  | 
CN(C)CCCN1c2ccccc2CCc2ccc(Cl)cc21 [Clomipramine, clomipramine, reference compound] | -49 |  | -54 | 
CC(N)(CO)Cc1ccc(Cl)c(Cl)c1 (single isomer, unassigned; (+)) [JO 1307, (+) 2-methyl-2-amino-3-(3,4-dichlorophenyl)-propanol] |  | -50 |  | 
CN(C)C(C)(CO)Cc1ccc(Cl)c(Cl)c1 (racemic) [JO 1017, (±) 2-methyl-2-dimethylamino-3-(3,4-dichlorophenyl)-propanol] | -65 | -86 | -85 | ED50 (mice [2]): 14 mg/kg
CC(N)(CO)Cc1ccc(Cl)c(Cl)c1 (racemic) [JO 1275, (±) 2-methyl-2-amino-3-(3,4-dichlorophenyl)-propanol] | -78 | -43 | -86 | 
CNC(C)(CO)Cc1ccc(Cl)c(Cl)c1 (single isomer, unassigned; (+)) [JO 1308, (+) 2-methyl-2-methylamino-3-(3,4-dichlorophenyl)-propanol] |  | -88 |  | 
CNC(C)(CO)Cc1ccc(Cl)c(Cl)c1 (racemic) [JO 1276, (±) 2-methyl-2-methylamino-3-(3,4-dichlorophenyl)-propanol] | -58 | -86 | -83 | ED50 (mice [2]): 8.5 mg/kg
CN(C)C(C)(CO)Cc1ccc(Cl)c(Cl)c1 (single isomer, unassigned; (-)) [JO 1239, (-) 2-methyl-2-dimethylamino-3-(3,4-dichlorophenyl)-propanol] |  | -86 |  | S.N.C.: Hanging test, activity percentages compared with the controls (mice [1]; Dose: 32 mg/kg, 32 mg/kg): -74%; S.N.C.: Hanging test, activity percentages compared with the controls (mice [1]; Dose: 128 mg/kg, 128 mg/kg): -64%; ED50 (mice [2]): 11 mg/kg
CCCCCC(CO)(Cc1ccc(Cl)c(Cl)c1)NC (racemic) [JO 1563, (±) 2-penthyl-2-methylamino-3-(3,4-dichlorophenyl)-propanol] | -49 |  | -71 | 
CN(C)C(C)(CO)Cc1ccc(Cl)c(Cl)c1 (single isomer, unassigned; (+)) [JO 1240, (+) 2-methyl-2-dimethylamino-3-(3,4-dichlorphenyl)-propanol] |  |  |  | S.N.C.: Hanging test, activity percentages compared with the controls (mice [1]; Dose: 32 mg/kg, 32 mg/kg): -77%; S.N.C.: Hanging test, activity percentages compared with the controls (mice [1]; Dose: 128 mg/kg, 128 mg/kg): -85%
C=CCN(C)C(C)(CO)Cc1ccc(Cl)c(Cl)c1 (racemic) [JO 1581, (±) 21-methyl-2-(N-methyl, N-allyl)-amino-3-(3,4-dichlorophenyl)-propanol] |  |  | -61 | 
CC(C)C(N)(CO)Cc1ccc(Cl)c(Cl)c1 (racemic) [JO 1579, (±) 2-isopropyl-2-amino-3 (3,4-dichlorophenyl)-propanol] |  |  | -67 | 
CCNC(C)(CO)Cc1ccc(Cl)c(Cl)c1 (single isomer, unassigned; (-)) [JO 1296, (-) 2-methyl-2-ethylamino-3-(3,4-dichlorophenyl)-propanol] |  | -38 |  | 
CCNC(C)(CO)Cc1ccc(Cl)c(Cl)c1 (racemic) [JO 1277, (±) 2-methyl-2-ethylamino-3-(3,4-dichlorophenyl)-propanol] |  | -43 |  | 
CCCCCC(N)(CO)Cc1ccc(Cl)c(Cl)c1 (racemic) [JO 1562, (±) 2-pentyl-2-amino-3 (3,4-dichlorophenyl)-propanol] | -73 |  |  | 
CN(CCc1ccccc1)C(C)(CO)Cc1ccc(Cl)c(Cl)c1 (racemic) [JO 1457, (±) 2-methyl-2-[N-methyl, N-(2-phenyl)-ethyl]-amino-3-(3,4-dichlorophenyl)-propanol] | -60 |  |  | 
CCCCCC(CO)(Cc1ccc(Cl)c(Cl)c1)N(C)C (racemic) [JO 1564, (±) 2-pentyl-2-dimethylamino-3-(3,4-dichlorophenyl)-propanol] |  |  | -74 | 
